# In patent US20230063462A1, “SULFONIMIDAMIDE COMPOUNDS AND COMPOSITIONS FOR TREATING CONDITIONS ASSOCIATED WITH NLRP ACTIVITY” (NOVARTIS AG, priority 2019, published 2023):
# Where two headings read alike, the source gives them in different places.
# System: THP-1 cells
# Assay: hTHP-1 assay: gramicidin-stimulated IL-1β detection in PMA-treated THP-1 cells
# Format: cell-based, human
# Method: The following protocol is suitable for testing the activity of the compounds disclosed herein.
# 1. Experimental procedure • 1.1 Cell Culture • 1) Culture THP-1 cells in the complete RPMI-1640 medium with 10% FBS at 37° C., 5% CO2. • 2) Passage the cells every 3 days by inoculating 3×10^5 cells per ml. • 1.2 Compound Preparation • Prepare the 3-fold serial dilution of the compounds with DMSO in a 384-well LDV Microplate using TECAN EVO system to generate the compound source plate with 10 concentrations. […] HC: 100 μM CRID3 (MCC950)+5 μM gramicidin LC: 5 μM Gramicidin. • 1.5 IL-1β Detection • 1) Homogenize the 5× diluent #5 with a vortex and add 1 volume of stock solution in 4 volumes of distilled water. • 2) Thaw 20× stock solution of anti-IL1β-Cryptate-antibody and anti-IL1β XL-antibody. Dilute these two antibodies to 1× with detection buffer #3. • 3) Pre-mix the two ready-to-use antibody solutions just prior to use. • 4) Dispense 4 ul of pre-mixed Anti-IL1β antibodies working solution into all wells. • 5) Seal the plate and incubate overnight at 4° C. • 6) Read the cell plate using EnVison and plot Readout vs. the test compound concentration to calculate the IC50.
# 2. Data Analysis: • 1. IC50 of compounds can be calculated using the following formulas • Formula for IC50
# % inhibition=100−100×[HCave-Readout/(HCave−LCave)] • 2. Fit the normalized data in a dose-response manner using XLfit, and calculate the compound concentration.
# [1] = Table B1, 2% fetal bovine serum, class symbol, read-out: hTHP-1 IC50
# [2] = Table B1, 2% fetal bovine serum, numeric value, read-out: hTHP-1 IC50
"IC50 (Homo sapiens, THP-1, Table B2, 10% FBS, class symbol, read-out: hTHP-1 IC50 in 10% FBS) [nM]","IC50 (Homo sapiens, THP-1, Table B2, 10% FBS, numeric value, read-out: hTHP-1 IC50 in 10% FBS) [nM]",IC50 [1] [nM],IC50 [2] [nM],"IC50 (Homo sapiens, THP-1, Table B1, 2% fetal bovine serum, class symbol, read-out: hTHP-1 IC50) [nM]",Structure (SMILES)
5000 to 30000,9960,,,,"NS(=O)(=NC(=O)Nc1c2c(nc(C(F)(F)F)c1C1CC1)CCC2)c1ccn(C2CC2)n1 (racemic) [Example 899, (S) or (RS)-1-cyclopropyl-N′-((3-cyclopropyl-2-(trifluoromethyl)-6,7-dihydro-5H-cyclopenta [b]pyridin-4-yl)carbamoyl)-1H-pyrazole-3-sulfonimidamide]"
,,40 to 200,53.5,,"CC(C)(O)c1csc(S(=O)(=NC(=O)Nc2c3c(cc4c2CCC4)CCC3)NC#N)c1 (single isomer, unassigned) [Example 1, (S) or (R)-N-cyano-N′-(1,2,3,5,6,7-hexahydro-s-indacen-4-ylcarbamoyl)-4-(2-hydroxypropan-2-yl)thiophene-2-sulfonimidamide]"
,,8 to 40,14.6,,"CC(C)(O)c1csc(S(=O)(=NC(=O)Nc2c3c(cc4c2CCC4)CCC3)NC#N)c1 (single isomer, unassigned) [Example 2, (R) or (S)-N-cyano-N′-((1,2,3,5,6,7-hexahydro-s-indacen-4-yl)carbamoyl)-4-(2-hydroxypropan-2-yl)thiophene-2-sulfonimidamide]"
,,40 to 200,59.7,,"CC(C)(O)c1ncc(S(=O)(=NC(=O)Nc2c3c(nc4c2CCC4(C)C)CCC3)NC#N)s1 (single isomer, unassigned) [Example 4, (S) or (R)-N-cyano-N′-((3,3-dimethyl-1,2,3,5,6,7-hexahydrodicyclopenta[b,e]pyridin-8-yl)carbamoyl)-2-(2-hydroxypropan-2-yl)thiazole-5-sulfonimidamide]"
,,200 to 1000,236,,"CC(C)(O)c1ncc(S(=O)(=NC(=O)Nc2c3c(nc4c2CCC4(C)C)CCC3)NC#N)s1 (single isomer, unassigned) [Example 5, (R) or (S)-N-cyano-N′-((3,3-dimethyl-1,2,3,5,6,7-hexahydrodicyclopenta[b,e]pyridin-8-yl)carbamoyl)-2-(2-hydroxypropan-2-yl)thiazole-5-sulfonimidamide]"
,,40 to 200,71.7,,"CC(C)(O)c1csc(S(=O)(=NC(=O)Nc2c3c(cc4c2CC4)CCC3)NC#N)c1 (single isomer, unassigned) [Example 6, (R) or (S)-N-cyano-4-(2-hydroxypropan-2-yl)-N′-((2,4,5,6-tetrahydro-1H-cyclobuta[f]inden-3-yl)carbamoyl)thiophene-2-sulfonimidamide]"
,,< 8,6.8,,"CC(C)(O)c1csc(S(=O)(=NC(=O)Nc2c3c(cc4c2CC4)CCC3)NC#N)c1 (single isomer, unassigned) [Example 7, (S) or (R)-N-cyano-4-(2-hydroxypropan-2-yl)-N′-((2,4,5,6-tetrahydro-1H-cyclobuta[f]inden-3-yl)carbamoyl)thiophene-2-sulfonimidamide]"
,,,42.2,40 to 200,"CC(C)(O)c1ccc(CS(=O)(=NC(=O)Nc2c3c(cc4c2CCC4)CCC3)NC#N)cc1 (single isomer, unassigned) [Example 8, (S) or (R)-N-cyano-N′-((1,2,3,5,6,7-hexahydro-s-indacen-4-yl)carbamoyl)-1-(4-(2-hydroxypropan-2-yl)phenyl)methanesulfonimidamide]"
,,40 to 200,104,,"CC(C)(O)c1ccc(CS(=O)(=NC(=O)Nc2c3c(cc4c2CCC4)CCC3)NC#N)cc1 (single isomer, unassigned) [Example 9, (R) or (S)-N-cyano-N′-((1,2,3,5,6,7-hexahydro-s-indacen-4-yl)carbamoyl)-1-(4-(2-hydroxypropan-2-yl)phenyl)methanesulfonimidamide]"
,,1000 to 5000,2440,,"Cc1oc(S(=O)(=NC(=O)Nc2c(C(C)C)cc(F)cc2C(C)C)NC#N)cc1C(C)(C)O (single isomer, unassigned) [Example 10, (S) or (R)-N-cyano-N′-((4-fluoro-2,6-diisopropylphenyl)carbamoyl)-4-(2-hydroxypropan-2-yl)-5-methylfuran-2-sulfonimidamide]"
